Measured values from DBAASP.
In brackets after ≈: the same amount, converted by molar mass.

Tests used:
Assay in all cases: ≥ marks a high value that may be exact or a test limit, other limits are often not marked, values filed in µg/mL are converted to µM
[1] = tested on: Pseudomonas aeruginosa ATCC 27853
Enterococcus faecium = tested on: Enterococcus faecium
[2] = tested on: Stenotrophomonas maltophilia 2
Cryptococcus neoformans = tested on: Cryptococcus neoformans
Candida glabrata 1 = tested on: Candida glabrata 1
Proteus mirabilis = tested on: Proteus mirabilis
[3] = tested on: Staphylococcus epidermidis
[4] = tested on: Stenotrophomonas maltophilia
Acinetobacter baumannii = tested on: Acinetobacter baumannii
Serratia marcescens = tested on: Serratia marcescens
Pseudomonas aeruginosa 1 = tested on: Pseudomonas aeruginosa 1
Nocardia asteroides = tested on: Nocardia asteroides
Klebsiella pneumoniae 5 = tested on: Klebsiella pneumoniae 5
Enterococcus faecalis = tested on: Enterococcus faecalis
Proteus vulgaris = tested on: Proteus vulgaris
Candida albicans 1 = tested on: Candida albicans 1
Candida glabrata = tested on: Candida glabrata
Candida albicans = tested on: Candida albicans
Arcyria cinerea = tested on: Arcyria cinerea
[5] = tested on: Staphylococcus aureus ATCC 25923
Staphylococcus aureus 4 = tested on: Staphylococcus aureus 4
Pseudomonas aeruginosa 2 = tested on: Pseudomonas aeruginosa 2
Klebsiella pneumoniae 1 = tested on: Klebsiella pneumoniae 1
Escherichia coli = tested on: Escherichia coli
Klebsiella pneumoniae 2 = tested on: Klebsiella pneumoniae 2
Candida albicans 5 = tested on: Candida albicans 5
Klebsiella oxytoca = tested on: Klebsiella oxytoca
[6] = tested on: Salmonella enterica subsp. enterica serovar Paratyphi A
Klebsiella pneumoniae = tested on: Klebsiella pneumoniae
Bacillus cereus = tested on: Bacillus cereus
Staphylococcus aureus 1 = tested on: Staphylococcus aureus 1
Bacillus subtilis = tested on: Bacillus subtilis
Shigella dysenteriae = tested on: Shigella dysenteriae
Bacillus subtilis PY79 = tested on: Bacillus subtilis PY79
[7] = tested on: Klebsiella pneumoniae ATCC 700603
[8] = tested on: Escherichia coli ATCC 25922
[9] = tested on: Escherichia coli DH5alpha
[10] = tested on: Pseudomonas aeruginosa PA14
[11] = tested on: Pseudomonas aeruginosa PAO1
[12] = tested on: Staphylococcus aureus ATCC 6538P
[13] = tested on: Bacillus subtilis CCT 2576
[14] = tested on: Pseudomonas aeruginosa ATCC 13388
[15] = tested on: Staphylococcus aureus CCT 2580
[16] = tested on: Bacillus thuringiensis ATCC 10792
[17] = tested on: Salmonella enterica subsp. enterica serovar Choleraesuis ATCC 10708
[18] = tested on: Staphylococcus aureus ATCC 6538
[19] = tested on: Streptococcus mutans AU159
[20] = tested on: Pseudomonas aeruginosa ATCC 15422
[21] = tested on: Escherichia coli CCT 1457
[22] = tested on: Enterococcus faecium CCT 5079
[23] = tested on: Escherichia coli ATCC 11775
[24] = tested on: Enterococcus hirae ATCC 10541
[25] = tested on: Micrococcus luteus ATCC 4698
[26] = tested on: Bacillus cereus ATCC 11778
[27] = tested on: Salmonella enterica subsp. enterica serovar Typhimurium ATCC 14028
[28] = tested on: Staphylococcus epidermidis ATCC 12228
[29] = tested on: Staphylococcus aureus CCT 6538
[30] = tested on: Streptococcus pneumoniae ATCC 11733
[31] = tested on: Fusarium graminearum PH-1

CC[C@H](C)[C@H](NC(=O)[C@H](CO)NC(=O)[C@H](CCCCN)NC(=O)[C@@H](NC(=O)[C@H](CCCCN)NC(=O)[C@H](CCCCN)NC(=O)[C@H](CCCCN)NC(=O)[C@@H](NC(=O)[C@H](CCCCN)NC(=O)[C@@H]1CSSC[C@H](NC(=O)[C@H](CCCCN)NC(=O)[C@@H](N)CCCCN)C(=O)N[C@@H](CCCCN)C(=O)N[C@@H](Cc2ccccc2)C(=O)N[C@@H](Cc2ccccc2)C(=O)N1)C(C)C)[C@@H](C)CC)C(=O)NCC(=O)N[C@@H](Cc1ccccc1)C(=O)N[C@@H](CCC(N)=O)C(=O)N[C@H](C(=O)N1CCC[C@H]1C(=O)N[C@H](C(=O)N[C@H](C(=O)N[C@@H](CO)C(=O)N[C@H](C(=O)N1CCC[C@H]1C(=O)N[C@@H](Cc1ccccc1)C(=O)N[C@@H](CCCCN)C(=O)O)[C@@H](C)CC)C(C)C)[C@@H](C)CC)[C@@H](C)CC [KKCKFFCKVKKKIKSIGFQIPIVSIPFK]
MIC [1]: 2.86 µM (≈ 9.37 µg/mL)
MIC (Enterococcus faecium): 2.86 µM (≈ 9.37 µg/mL)
MIC [2]: 2.86 µM (≈ 9.37 µg/mL)
MIC (Cryptococcus neoformans): ≥ 60.9 µM
MIC (Candida glabrata 1): 2.86 µM (≈ 9.37 µg/mL)
MIC (Proteus mirabilis): 5.71 µM (≈ 18.7 µg/mL)
MIC [3]: 2.86 µM (≈ 9.37 µg/mL)
MIC [4]: 11.4 µM (≈ 37.5 µg/mL)
MIC (Acinetobacter baumannii): ≥ 60.9 µM
MIC (Serratia marcescens): ≥ 60.9 µM
MIC (Pseudomonas aeruginosa 1): 5.71 µM (≈ 18.7 µg/mL)
MIC (Nocardia asteroides): 22.8 µM (≈ 75 µg/mL)
MIC (Klebsiella pneumoniae 5): ≥ 60.9 µM
MIC (Enterococcus faecalis): 22.8 µM (≈ 75 µg/mL)
MIC (Proteus vulgaris): ≥ 60.9 µM
MIC (Candida albicans 1): 2.86 µM (≈ 9.37 µg/mL)
MIC (Candida glabrata): ≥ 60.9 µM
MIC (Candida albicans): 11.4 µM (≈ 37.5 µg/mL)
MIC (Arcyria cinerea): 5.71 µM (≈ 18.7 µg/mL)
MIC [5]: > 60.9 µM
MIC (Staphylococcus aureus 4): ≥ 60.9 µM
MIC (Pseudomonas aeruginosa 2): 1.43 µM (≈ 4.69 µg/mL)
MIC (Klebsiella pneumoniae 1): 11.4 µM (≈ 37.5 µg/mL)
MIC (Escherichia coli): 4.04 µM (≈ 13.3 µg/mL)
MIC (Klebsiella pneumoniae 2): 5.71 µM (≈ 18.7 µg/mL)
MIC (Candida albicans 5): ≥ 60.9 µM
MIC (Klebsiella oxytoca): 1.43 µM (≈ 4.69 µg/mL)
MIC [6]: 11.4 µM (≈ 37.5 µg/mL)
MIC (Klebsiella pneumoniae): 22.8 µM (≈ 75 µg/mL)
MIC (Bacillus cereus): ≥ 60.9 µM
MIC (Staphylococcus aureus 1): 2.02 µM (≈ 6.63 µg/mL)
MIC (Bacillus subtilis): 2.86 µM (≈ 9.37 µg/mL)
MIC (Shigella dysenteriae): 1.43 µM (≈ 4.69 µg/mL)

CC(=O)NC(CC(C)C)C(=O)NC(CCCNC(=N)N)C(=O)NC(C(=O)NC(CCCNC(=N)N)C(=O)NC(CC(C)C)C(=O)NC(C)C(=O)NC(CO)C(=O)NC(Cc1c[nH]cn1)C(=O)NC(CC(C)C)C(=O)NC(CCCNC(=N)N)C(=O)NC(CCCCN)C(=O)NC(CC(C)C)C(=O)NC(CCCNC(=N)N)C(=O)NC(CCCCN)C(=O)NC(CCCNC(=N)N)C(=O)NC(CC(C)C)C(=O)NC(CC(C)C)C(N)=O)C(C)C (stereo unspecified) [LRVRLASHLRKLRKRLL]
MIC (Bacillus subtilis PY79): ≥ 100 µM
MIC [7]: 3.12 µM (≈ 6.77 µg/mL)
MIC [8]: 6.25 µM (≈ 13.6 µg/mL)
MIC [9]: 12.5 µM (≈ 27.1 µg/mL)
MIC [10]: ≥ 50 µM
MIC [11]: 25 µM (≈ 54.2 µg/mL)
MIC [12]: ≥ 100 µM

CC[C@H](C)[C@H](N)C(=O)N[C@@H](CC(N)=O)C(=O)N[C@@H](Cc1c[nH]c2ccccc12)C(=O)N[C@@H](CC(C)C)C(=O)N[C@@H](CCCCN)C(=O)N[C@@H](C)C(=O)N[C@@H](CCCCN)C(=O)N[C@@H](CCCCN)C(=O)N[C@H](C(=O)N[C@@H](C)C(=O)NCC(=O)N[C@@H](CCSC)C(=O)N[C@H](C(=O)N[C@@H](CC(C)C)C(N)=O)[C@@H](C)CC)C(C)C [INWLKAKKVAGMIL]
MIC [13]: 7.38 µM (≈ 11.7 µg/mL)
MIC [8]: 14.8 µM (≈ 23.4 µg/mL)
MIC [14]: ≥ 158 µM
MIC [15]: 27.1 µM (≈ 43 µg/mL)
MIC [16]: ≥ 78.9 µM
MIC [17]: ≥ 315 µM
MIC [18]: 27.1 µM (≈ 42.9 µg/mL)
MIC [19]: ≥ 315 µM
MIC [20]: ≥ 78.9 µM
MIC [21]: 19.6 µM (≈ 31 µg/mL)
MIC [22]: ≥ 158 µM
MIC [5]: 39.7 µM (≈ 63 µg/mL)
MIC [23]: ≥ 39.7 µM
MIC [24]: ≥ 39.7 µM
MIC [25]: 19.6 µM (≈ 31 µg/mL)
MIC [26]: 10.1 µM (≈ 16 µg/mL)
MIC [27]: 315 µM (≈ 500 µg/mL)
MIC [28]: 39.7 µM (≈ 63 µg/mL)
MIC [29]: ≥ 39.7 µM
MIC [30]: ≥ 78.9 µM

NC(N)=NCCC[C@H](NC(=O)[C@H](CCCN=C(N)N)NC(=O)[C@H](CCCN=C(N)N)NC(=O)[C@H](Cc1ccccc1)NC(=O)CNC(=O)[C@@H](N)CCCN=C(N)N)C(=O)O [RGFRRR]
MIC [31]: 12 µM (≈ 10.2 µg/mL)
